In patent publication US5523406A, “2-substituted tertiary carbinol derivatives of 1,5-iminosugars” (G. D. Searle & Co., priority 1994, dated 1996) one finds IC50, cytotoxicity and CC50 data, which are given here for five molecules.

Values after ≈ are worked out from the molar mass of the structure shown. Read-outs that look alike come from different tables or passages of the source. Bounds are passed on as bounds.

Data set [1] concerns HIV-1, strain HTVL-IIIB. The data set can be described thus: Inhibition of HIV-1 cytopathogenic effect in Leu-3a-positive CEM cells, MTT endpoint (Method B). To be noted: Human immunodeficiency virus 1, IIIB, CCRF-CEM, 216 h, read-out: ID50 (the source's name). It counts as cell-based. As for the experimental part:
(§1) These tests involved plating of susceptible human host cells which are syncytium-sensitive with and without virus in microculture plates, adding various concentrations of the test compound, incubating the plates for 9 days (during which time infected, non-drug treated control cells are largely or totally destroyed by the virus), and then determining the number of remaining viable cells using a colorimetric endpoint.
Various illustrative compounds synthesized above were tested for inhibition of visna virus in vitro in a plaque reduction assay (Method A) or for inhibition of HIV-1 in a test which measured reduction of cytopathogenic effect in virus-infected synctium-sensitive Leu-3a-positive CEM cells grown in tissue culture (Method B) as follows:
(§2) Tissue culture plates were incubated at 37° C. in a humidified, 5% CO2 atmosphere and observed microscopically for toxicity and/or cytopathogenic effect (CPE). At 1 hour prior to infection, each test article was prepared from the frozen stock, and a 20 μl volume of each dilution (prepared as a 10× concentration) was added to the appropriate wells of both infected and uninfected cells.
(§3) On the 9th day post-infection, the cells in each well were resuspended and a 100 μl sample of each cell suspension was removed for use in an MTT assay. A 20 μl volume of a 5 mg/ml solution of 3-(4,5-dimethylthiazol-2-yl)-2,5-diphenyltetrazolium bromide (MTT) was added to each 100 μl cell suspension, and the cells were incubated at 37° C. in 5% CO2 for 4 hours. […] A 100 μl volume of a solution of 10% sodium dodecyl sulfate in 0.01N hydrochloric acid was added to each sample, and the samples were incubated overnight. The absorbance at 590 nm was determined for each sample using a Molecular Devices Vmax microplate reader. This assay detects drug-induced suppression of viral CPE, as well as drug cytotoxicity, by measuring the generation of MTT-formazan by surviving cells.
(§4) Assays were done in 96-well tissue culture plates. CEM cells were treated with polybrene at a concentration of 2 μg/ml, and an 80 μl volume of cells (1×10^4 cells) was dispensed into each well. A 100 μl volume of each test article dilution (prepared as a 2 ×concentration) was added to 5 wells of cells, and the cells were incubated at 37° C. for 1 hour. A frozen culture of HIV-1, strain HTVL-IIIB, was diluted in culture medium to a concentration of 5×10^4 TCID50 per ml, and a 20 μl volume (containing 10^3 TCID50 of virus) was added to 3 of the wells for each test article concentration. […] A 20 μl volume of normal culture medium was added to the remaining wells to allow evaluation of cytotoxicity. Each plate contained 6 wells of untreated, uninfected, cell control samples and 6 wells of untreated, infected, virus control samples.

A short description of data set [2]: in vitro. In kind it is cell-based. To be noted: human, cem cells. As for the experimental part: as §1, §2, §3, §4
Setting [3] is: Table I, Anti HIV Activity, CEM cells, 9 days.

As usually defined, the CC50 is the concentration giving 50% cytotoxicity.

`CCCCN1C[C@](C)(O)[C@@H](O)[C@H](O)[C@H]1CO` [XVIA, 1,5-Butylimino-1,5-dideoxy-2-C-methyl-D-glucitol]: in data set [1] (setting [3]), the IC50 turned out to be 237 µg/mL (≈ 1020 µM). This molecule gave a cytotoxicity at 216 h in data set [2] of 20%. As to `CCC(CC)CN1C[C@](C)(O)[C@@H](O)[C@H](O)[C@H]1CO` [XVIC, 1,5-(2-ethylbutylimino) -1,5-dideoxy-2-C-methyl-D-glucitol], the IC50 in data set [1] (setting [3]) turned out to be 6 µg/mL (≈ 23 µM). In data set [2], this molecule gave a cytotoxic concentration (CC50) at 216 h of 349 µg/mL (≈ 1340 µM). Turning to `CCCCN1C[C@H](O)[C@@H](O)[C@H](O)[C@H]1CO` [n-Bu, N-butyl DNJ, reference compound], in data set [1] (setting [3]), the IC50 is 34 µg/mL (≈ 155 µM). Further, the CC50 at 216 h in data set [2] is > 500 µg/mL. Consider `CC1(O)CN(CCCc2ccccc2)C(CO)C(O)C1O` [XVIB, 1,5-(3-phenylpropylimino)-1,5-dideoxy-2-C-methyl-D-glucitol], for which the IC50 in data set [1] (setting [3]) came to 492 µg/mL (≈ 1670 µM). The cytotoxicity at 216 h in data set [2] worked out at 40%.

On to `C[C@]1(O)CN[C@@H]2CO[C@@H](c3ccccc3)O[C@H]2[C@@H]1O` [XIV, 1,5-dideoxy-1,5-imino-2-C-methyl-4,6-O-(R-phenylmethylene)TD-glucitol], for which the IC50 in data set [1] (Example 38, inhibition of HIV) amounted to 513 µg/mL (≈ 1930 µM).
